In paper PMC3159909, “Alliinase from Ensifer adhaerens and Its Use for Generation of Fungicidal Activity” (AMB Express, 2011):
Where two headings read alike, the source gives them in different places.

Test system: T1, P-19486 alliinase
T1 construct: homodimer 96 kDa, subunit 48 kDa; PLP-dependent
Test: colorimetric pyruvic acid production
Type: biochemical, Ensifer adhaerens
Details: 20 uM PLP, 50 mM sodium phosphate pH 7.0, 30°C, read-out: Kinetic constants / Km
Description: colorimetric pyruvic acid production on P-19486 alliinase

Compound	Km (diastereomer mixture) [mM]	Km [mM]
C=CC[S+]([O-])C[C@H](N)C(=O)O (mixture of isomers) [(±)-Alliin]	2.3	
C=CC[S@+]([O-])C[C@H](N)C(=O)O [(+)-Alliin]		5.7
C=CCSC[C@H](N)C(=O)O [S-Allyl-L-cysteine]		10.6
